pEC50: −log10 of the molar value. Where two headings read alike, the source gives them in different places.
Tests used:
Aedes mosquito larvae = test: PDI assay of light-activated larvicidal activity (larva mobility); type: in vivo, A. aegypti and A. albopictus; conditions: for pEC50: 2nd instar larvae, estimated from concentration vs. larvicidal activity curve, 16 hours PS exposure in dark, then white light, read-out: EC50 for PDT-mediated 2nd-instar larvicidal activities; for 2nd instar larvicidal activity (larva immobilization, % of dark control) compared with positive controls RB and CY: 1/1000 dilution of stock, white light up to 7 hours
Description: 2nd to 4th instar larvae of A. aegypti and A. albopictus (or Aedes mosquitoes in brief) were used in the experiments, as they are known vectors of Zika fever and other viral diseases. Colonies of both species were reared to provide the larvae of all instars under the approved conditions of a humidified “warm room” (˜28 C, ˜80% relative humidity).
The PDI assay to determine the larvicidal activities of the PS in Table 1 was based on procedures developed for mammalian and protozoa cells with modifications for mosquito larvae. Briefly, each PS was tested in 3-4 concentrations in 10-fold serial dilutions, starting with a 1/100 dilution of the stock solution (see Table 1 for the PS stock concentrations) as the highest. The solvent (DMSO) at these PS concentrations was ≤1%, which was pre-tested alone and shown to have no larvicidal activity. Larvae were PS-exposed (and not exposed as a control) in groups of 20 per 5 mL of water per well of a 6-well plate, in duplicate. All plates were foil-wrapped for overnight incubation under dark conditions in the “warm room.” After 16 hours of PS exposure, one of the duplicate 6-well plates was un-wrapped and the lid removed for exposure from the top with white light from a fluorescent tube-containing box (1-2 J/cm^2). The remaining 6-well plate of the duplicate was exposed under exactly the same conditions, but remained foil-wrapped as the dark control. Larvae were checked for mobility and readings recorded hourly for up to 7 hours. […] Each condition was repeated 4-5 times in independent experiments.

[1] = tested on: Culex pipiens quinquefasciatus 4th instar larvae; test: Uptake and photo-inactivation in mosquito larvae kept in dye-containing water; type: in vivo
Experimental: Panel [A]: Culex pipiens quinquefasciatus 4th instar larvae exposed to rose Bengal (10 μg/mL) (˜20 larvae/5 mL water/well in 6-well plate) in dark for ˜24 hours followed by exposure to white light for ˜6 hrs at ˜2500 lux. Panels [B] and [C]: Phlebotomus duboscqi female (B) and male (C) adult flies (˜20 flies/screened paper cup) fed with 5% sucrose solution and 500 μL of 5 mg/mL rose bengal in a cotton ball for ˜20 hrs in the dark followed by exposure to ˜2500 lux of white light for 3 hrs. Duplicate samples were prepared and kept in the dark as controls. Rose bengal was taken up by the mosquito larvae and sand flies of both sexes.
Culex pipiens quinquefasciatus 4th instar larvae were exposed to rose Bengal or cyanosine (10 μg/mL) (˜20 larvae/5 mL water/well in 6-well plate) in the dark for ˜24 hours followed by exposure to white light for ˜6 hrs at ˜2500 lux; Phlebotomus duboscqi female (FIG. 1, panel B) and male (FIG. 1, panel C) adult flies (˜20 flies/screened paper cup) fed with 5% sucrose solution and 500 μL of 5 mg/ml rose bengal in a cotton ball for ˜20 hrs in the dark followed by exposure to ˜2500 lux of white light for 3 hrs. Duplicate samples were prepared and kept in the dark as controls.
The susceptibility of PS-sensitized insects to white light illumination varied with the species and the PSs used. […]

[2] = tested on: Aedes albopictus clone C6/36 (ATCC CRL-1660); test: Uptake of PS by mosquito cells in vitro and photo-inactivation; conditions: for state of sensitized cells after light exposure: white light, 4 hrs
Experimental: (§1) The insect cells were exposed to both dyes overnight and illuminated with white light under conditions similar to those described for mammalian and Leishmania cells. Images were captured first under differential interference (DIF) [A] and then under the filter sets for DAPI and Texas red [B]. [C] Chemical structure of cyanosione and rose Bengal.
as §1, with “Uptake of PS was assessed in insect cells, specifically Aedes albopictus clone C6/36 (ATCC CRL-1660). The” for “The”, “cells. […]” for “cells.”

[3] = 1/10000 dilution of the stocks, light-activated

Row | Molecule | viability of 2nd to 4th instar larvae (Aedes mosquito larvae; [3]) | pEC50 (Aedes mosquito larvae; Aedes) | phototoxicity to mosquito larvae ([1]; 10 μg/mL, dark ~24 hours, then white light ~6 hrs at ~2500 lux) | difference of sensitized larvae between dark and light conditions ([1]; motility as viability readout) | state of sensitized cells kept in the dark ([2]; dark) | state of sensitized cells after light exposure [2] | state of sensitized cells after light exposure ([2]; listed as RB) | 2nd instar larvicidal activity (larva immobilization, % of dark control) compared with positive controls RB and CY (Aedes mosquito larvae) | effect on the other instars (3rd, 4th) (Aedes mosquito larvae; [3]) | pEC50 (Aedes mosquito larvae)
1 | O=C([O-])c1c(Cl)c(Cl)c(Cl)c(Cl)c1-c1c2cc(I)c(=O)c(I)c-2oc2c(I)c([O-])c(I)cc12.[Na+].[Na+] [Rose Bengal] | reduced the viability of all instars to a variable extent | 6.60 | especially evident | significant | remained adherent and intact | cellular disintegration | became disintegrated |  |  | 
2 | Meso- Tetraphenylpor- phine disulphonic acid dihydrochoride [TPPS2] |  |  |  |  |  |  |  | most similar to RB | unscathed | 
3 | Meso-tetra(4- n,n,n- trimethylanili- nium) porphine tetrachloride [TMAP] |  |  |  |  |  |  |  | most similar to RB | unscathed | 7.00

— patent US10070648B2, “Photodynamic insecticides” (ROSALIND FRANKLIN UNIVERSITY OF MEDICINE AND SCIENCE, priority 2016, dated 2018)
